According to ChEMBL document CHEMBL2016573, “Fluorescent nucleosides with 'on-off' switching function, pH-responsive fluorescent uridine derivatives” (Bioorg Med Chem Lett, 2012):

Key:
[1] = test system: Huh-7; assay: Cellular uptake in human HuH7 cells at 1 uM after 2 hrs by fluorescence microscopic analysis; type: ADME, cell-based; conditions: huh-7, 2 h
[2] = Dissociation constant, pKa of the compound at pH < 5; type: physicochemical
[3] = Dissociation constant, pKa of the compound at pH 4.8 to 8.2; type: physicochemical
[4] = Drug uptake in human HuH7 cells assessed as localization in cytosol at 1 uM after 2 hrs by fluorescence microscopic analysis; type: ADME, cell-based, Huh-7

Compound | Drug uptake [1] | pKa [2] | pKa [3] | Drug uptake [4]
CNc1ccc(C#Cc2c3ccccc3c(C#Cc3cn([C@H]4C[C@H](O)[C@@H](CO)O4)c(=O)[nH]c3=O)c3ccccc23)cc1 | Not Active | 3.7 |  | 
CN(C)c1ccc(C#Cc2c3ccccc3c(C#Cc3cn([C@H]4C[C@H](O)[C@@H](CO)O4)c(=O)[nH]c3=O)c3ccccc23)cc1 |  | 3 |  | 
CCCCNc1ccc(C#Cc2c3ccccc3c(C#Cc3cn([C@H]4C[C@H](O)[C@@H](CO)O4)c(=O)[nH]c3=O)c3ccccc23)cc1 |  | 3.5 |  | 
Nc1ccc(C#Cc2c3ccccc3c(C#Cc3cn([C@H]4C[C@H](O)[C@@H](CO)O4)c(=O)[nH]c3=O)c3ccccc23)cc1 |  | 3.9 |  | 
CC(C)(C)Nc1ccc(C#Cc2c3ccccc3c(C#Cc3cn([C@H]4C[C@H](O)[C@@H](CO)O4)c(=O)[nH]c3=O)c3ccccc23)cc1 |  | 6.1 | 6.1 | Active
CCC(CC)Nc1ccc(C#Cc2c3ccccc3c(C#Cc3cn([C@H]4C[C@H](O)[C@@H](CO)O4)c(=O)[nH]c3=O)c3ccccc23)cc1 |  | 3.7 |  | 
O=c1[nH]c(=O)n([C@H]2C[C@H](O)[C@@H](CO)O2)cc1C#Cc1c2ccccc2c(C#Cc2ccc(NC3CCCCC3)cc2)c2ccccc12 |  | 3.9 |  | 
